According to patent US9278940B2, “Cyclic amines as bromodomain inhibitors” (Zenith Epigenetics Corp., priority 2012, dated 2016):
Counter-ions that a name gives are not always drawn.

Tests used:
hApoA-1 mRNA = assay: Up-regulation of hApoA-1 mRNA transcription in Huh7 cells; format: cell-based, human; set-up: key: Active: Compounds with an EC170 value less than 30 μM are deemed to be active.; Not Active: Compounds with an EC170 value less than 30 μM are deemed to be active; conditions: 48 hrs treatment, ApoA-I mRNA
How it was run: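 Huh7 cells plated 24 h before compound, then treated 48 h; mRNA isolated from lysates and ApoA-I quantified by one-step real-time PCR. Fold induction derived from Ct values relative to the matching DMSO control; EC170 reported as activity measure.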

c-myc = assay: Inhibition of c-myc expression (mRNA, real-time PCR) in MV4-11 cells; format: cell-based; set-up: key: Active: Compounds with an IC50 value less than 30 μM were deemed to be active.; Not Active: Compounds with an IC50 value less than 30 μM were deemed to be active; conditions: Human AML MV4-11 cells, 3 hours
How it was run: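 MV4-11 cells (2.5×10^4) exposed to compound or 0.1% DMSO for 3 h at 37° C, then lysed for mRNA isolation. c-myc and cyclophilin cDNAs co-amplified by duplex RT real-time PCR. IC50 from dose-response curve.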

hIL-6 mRNA = assay: Inhibition of hIL-6 mRNA transcription in LPS-stimulated U937 macrophages; format: cell-based, human; set-up: key: Active: Compounds with an IC50 value less than 30 μM are deemed to be active.; Not Active: Compounds with an IC50 value less than 30 μM are deemed to be active; conditions: U937 cells differentiated with PMA, 1 h pretreatment, LPS 3 h
How it was run: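 U937 cells differentiated to macrophages with 60 ng/mL PMA for 3 days, pretreated 1 h with compound, then stimulated with 1 ug/mL E. coli LPS for 3 h at 37° C. IL-6 mRNA measured by one-step qRT-PCR, Ct normalized to internal control, expressed as fold induction relative to control.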

Brd4 bromodomain 1 = molecular target: T1, Brd4 bromodomain 1 (Homo sapiens, UniProt O60885); assay: Inhibition of tetra-acetylated histone H4 binding to BET bromodomain (TR-FRET); set-up: key: Active: Compounds with an IC50 value less than 30 μM were deemed to be active.; Not Active: Compounds with an IC50 value less than 30 μM were deemed to be active; conditions: Brd4 bromodomain 1, tetra-acetylated histone H4 peptide
T1 construct: made in house; host or cells: E. coli BL21(DE3)
How it was run: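 N-terminally His-tagged bromodomain (200 nM, E. coli-expressed, Ni affinity and SEC purified) with biotinylated tetra-acetylated H4 peptide (25-50 nM), Eu-cryptate streptavidin and XL665 anti-His; 2 h at room temperature in HEPES pH 7.4/KF buffer, 0.2% DMSO. The 665/620 nm ratio decrease gave IC50 from dose-response curves.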

COc1cc(OC)c2c(=O)[nH]c(-c3cccc(N4CCN(C(C)C)CC4)n3)nc2c1 [Example 17, 2-(6-(4-Isopropylpiperazin-1-yl)pyridin-2-yl)-5,7-dimethoxyquinazolin-4(3H)-one Hydrochloride]
Active: ApoA-1 activity (EC170 < 30 μM) (hApoA-1 mRNA) | c-myc activity (IC50 < 30 μM) (c-myc) | IL-6 activity (IC50 < 30 μM) (hIL-6 mRNA) | FRET activity (IC50 < 30 μM) (Brd4 bromodomain 1)
